Results reported in patent US8802597B2, “Herbicidal pyrimidines” (E I du Pont de Nemours and Company, priority 2003, dated 2014).

Columns and labels:
Type in all cases: in vivo
[1] = system: blackgrass (Alopecurus myosuroides); assay: Test B postemergence; conditions: for Blackgrass plant response rating: 125 g ai/ha, scale 0 to 100 (0 no effect, 100 complete control); for Plant response rating, Blackgrass: 500 g ai/ha, scale 0 to 100
From the text: (§1) Seeds selected from barnyardgrass (Echinochloa crus-galli), Surinam grass (Brachiaria decumbens), cocklebur (Xanthium strumarium), corn (Zea mays), crabgrass (Digitaria sanguinalis), giant foxtail (Setaria faberii), lambsquarters (Chenopodium album), morningglory (Ipomoea coccinea), pigweed (Amaranthus retroflexus), velvetleaf (Abutilon theophrasti), and wheat (Triticum aestivum) were planted and treated preemergence with test chemicals formulated in a non-phytotoxic solvent mixture which included a surfactant.
(§2) At the same time, plants selected from these crop and weed species and also blackgrass (Alopecurus myosuroides) and wild oat (Avena fatua) were treated with postemergence applications of test chemicals formulated in the same manner. Plants ranged in height from 2 to 18 cm (1- to 4-leaf stage) for postemergence treatments. Plant species in the flooded paddy test consisted of rice (Oryza sativa), umbrella sedge (Cyperus difformis), duck salad (Heteranthera limosa) and barnyardgrass (Echinochloa crus-galli) grown to the 2-leaf stage for testing. Treated plants and controls were maintained in a greenhouse for 13 to 15 days, after which time all species were compared to controls and visually evaluated. Plant response ratings, summarized in Table B, are based on a scale of 0 to 100 where 0 is no effect and 100 is complete control. A dash (-) response means no test result.

[2] = system: wild oat (Avena fatua); assay: Test B postemergence; conditions: for Oat, Wild plant response rating: 125 g ai/ha, scale 0 to 100 (0 no effect, 100 complete control); for Plant response rating, Oat, Wild: 500 g ai/ha, scale 0 to 100
From the text: as §1, §2

[3] = system: barnyardgrass (Echinochloa crus-galli); assay: Test B flooded paddy test; conditions: Flood, 1000 g ai/ha; scale 0 (no effect) to 100 (complete control)
Procedure: as §2

[4] = system: umbrella sedge (Cyperus difformis); assay: Test B flooded paddy test; conditions: Flood, 1000 g ai/ha; scale 0 to 100
Procedure: as §2

[5] = system: rice (Oryza sativa); assay: Test B flooded paddy test; conditions: Flood, 1000 g ai/ha; scale 0 to 100
Procedure: as §2

[6] = system: duck salad (Heteranthera limosa); assay: Test B flooded paddy test; conditions: Flood, 1000 g ai/ha; scale 0 to 100
Procedure: as §2

[7] = system: Surinam grass (Brachiaria decumbens); assay: Test B pre/postemergence
From the text: as §1, §2

[8] = system: barnyardgrass (Echinochloa crus-galli); assay: Test B pre/postemergence
From the text: as §1, §2

[9] = system: velvetleaf (Abutilon theophrasti); assay: Test B pre/postemergence
From the text: as §1, §2

[10] = system: lambsquarters (Chenopodium album); assay: Test B pre/postemergence
From the text: as §1, §2

[11] = system: giant foxtail (Setaria faberii); assay: Test B pre/postemergence
From the text: as §1, §2

[12] = system: pigweed (Amaranthus retroflexus); assay: Test B pre/postemergence
From the text: as §1, §2

[13] = system: crabgrass (Digitaria sanguinalis); assay: Test B pre/postemergence
From the text: as §1, §2

[14] = system: wheat (Triticum aestivum); assay: Test B pre/postemergence
From the text: as §1, §2

[15] = system: cocklebur (Xanthium strumarium); assay: Test B pre/postemergence
From the text: as §1, §2

[16] = system: corn (Zea mays); assay: Test B pre/postemergence
From the text: as §1, §2

[17] = system: morningglory (Ipomoea coccinea); assay: Test B pre/postemergence
From the text: as §1, §2

[18] = Postemergence, 125 g ai/ha, scale 0 to 100 (0 no effect, 100 complete control)
[19] = Postemergence, 500 g ai/ha, scale 0 to 100
[20] = Preemergence, 125 g ai/ha, scale 0 to 100 (0 no effect, 100 complete control)
[21] = Preemergence, 500 g ai/ha, scale 0 to 100 (0 no effect, 100 complete control)

SMILES: CON=Cc1nc(C2CC2)nc(N)c1Br [Compound 48]
- Blackgrass plant response rating [1]: 0
- Plant response rating, Blackgrass [1]: 20
- Oat, Wild plant response rating [2]: 0
- Plant response rating, Oat, Wild [2]: 20
- Plant response rating, Barnyardgrass [3]: 20
- Plant response rating, Sedge, Umbrella [4]: 0
- Plant response rating, Rice [5]: 0
- Plant response rating, Ducksalad [6]: 20
- Surinam Grass plant response rating [7, 18]: 0
- Plant response rating, Surinam Grass [7, 19]: 10
- Plant response rating, Surinam Grass [7, 20]: 30
- Surinam Grass plant response rating [7, 21]: 60
- Barnyardgrass plant response rating [8, 18]: 10
- Plant response rating, Barnyardgrass [8, 19]: 20
- Plant response rating, Barnyardgrass [8, 20]: 0
- Barnyardgrass plant response rating [8, 21]: 10
- Velvetleaf plant response rating [9, 18]: 10
- Plant response rating, Velvetleaf [9, 19]: 60
- Plant response rating, Velvetleaf [9, 20]: 0
- Velvetleaf plant response rating [9, 21]: 0
- Lambsquarters plant response rating [10, 18]: 60
- Plant response rating, Lambsquarters [10, 19]: 80
- Plant response rating, Lambsquarters [10, 20]: 70
- Lambsquarters plant response rating [10, 21]: 100
- Foxtail, Giant plant response rating [11, 18]: 10
- Plant response rating, Foxtail, Giant [11, 19]: 10
- Plant response rating, Foxtail, Giant [11, 20]: 30
- Foxtail, Giant plant response rating [11, 21]: 50
- Pigweed plant response rating [12, 18]: 60
- Plant response rating, Pigweed [12, 19]: 80
- Plant response rating, Pigweed [12, 20]: 60
- Pigweed plant response rating [12, 21]: 80
- Crabgrass plant response rating [13, 18]: 10
- Plant response rating, Crabgrass [13, 19]: 20
- Plant response rating, Crabgrass [13, 20]: 10
- Wheat plant response rating [14, 18]: 0
- Plant response rating, Wheat [14, 19]: 20
- Plant response rating, Wheat [14, 20]: 0
- Plant response rating, Wheat [14, 21]: 30
- Cocklebur plant response rating [15, 18]: 20
- Plant response rating, Cocklebur [15, 19]: 80
- Plant response rating, Cocklebur [15, 20]: 0
- Cocklebur plant response rating [15, 21]: 20
- Corn plant response rating [16, 18]: 0
- Plant response rating, Corn [16, 19]: 0
- Plant response rating, Corn [16, 20]: 0
- Corn plant response rating [16, 21]: 0
- Morningglory plant response rating [17, 18]: 30
- Plant response rating, Morningglory [17, 19]: 80
- Plant response rating, Morningglory [17, 20]: 0
- Morningglory plant response rating [17, 21]: 30

SMILES: CCOC(=O)c1nc(C2CC2)nc(NCCOC)c1Br [Compound 39]
- Blackgrass plant response rating [1]: 0
- Plant response rating, Blackgrass [1]: 0
- Oat, Wild plant response rating [2]: 0
- Plant response rating, Oat, Wild [2]: 0
- Plant response rating, Barnyardgrass [3]: 0
- Plant response rating, Sedge, Umbrella [4]: 0
- Plant response rating, Rice [5]: 0
- Plant response rating, Ducksalad [6]: 0
- Surinam Grass plant response rating [7, 18]: 0
- Plant response rating, Surinam Grass [7, 19]: 30
- Plant response rating, Surinam Grass [7, 20]: 0
- Surinam Grass plant response rating [7, 21]: 0
- Barnyardgrass plant response rating [8, 18]: 0
- Plant response rating, Barnyardgrass [8, 19]: 70
- Plant response rating, Barnyardgrass [8, 20]: 0
- Barnyardgrass plant response rating [8, 21]: 20
- Velvetleaf plant response rating [9, 18]: 40
- Plant response rating, Velvetleaf [9, 19]: 70
- Plant response rating, Velvetleaf [9, 20]: 0
- Velvetleaf plant response rating [9, 21]: 30
- Lambsquarters plant response rating [10, 18]: 70
- Plant response rating, Lambsquarters [10, 19]: 90
- Plant response rating, Lambsquarters [10, 20]: 50
- Lambsquarters plant response rating [10, 21]: 100
- Foxtail, Giant plant response rating [11, 18]: 0
- Plant response rating, Foxtail, Giant [11, 19]: 30
- Plant response rating, Foxtail, Giant [11, 20]: 0
- Foxtail, Giant plant response rating [11, 21]: 20
- Pigweed plant response rating [12, 18]: 50
- Plant response rating, Pigweed [12, 19]: 70
- Plant response rating, Pigweed [12, 20]: 70
- Pigweed plant response rating [12, 21]: 100
- Crabgrass plant response rating [13, 18]: 0
- Plant response rating, Crabgrass [13, 19]: 40
- Plant response rating, Crabgrass [13, 20]: 0
- Crabgrass plant response rating [13, 21]: 50
- Wheat plant response rating [14, 18]: 0
- Plant response rating, Wheat [14, 19]: 0
- Plant response rating, Wheat [14, 20]: 0
- Plant response rating, Wheat [14, 21]: 10
- Cocklebur plant response rating [15, 18]: 30
- Plant response rating, Cocklebur [15, 19]: 50
- Plant response rating, Cocklebur [15, 20]: 10
- Cocklebur plant response rating [15, 21]: 30
- Corn plant response rating [16, 18]: 0
- Plant response rating, Corn [16, 19]: 50
- Plant response rating, Corn [16, 20]: 30
- Corn plant response rating [16, 21]: 50
- Morningglory plant response rating [17, 18]: 80
- Plant response rating, Morningglory [17, 19]: 100
- Plant response rating, Morningglory [17, 20]: 30
- Morningglory plant response rating [17, 21]: 70

SMILES: CCOC(=O)Cc1nc(-c2ccc(Cl)cc2)nc(N)c1Br [Compound 41]
- Blackgrass plant response rating [1]: 20
- Plant response rating, Blackgrass [1]: 60
- Oat, Wild plant response rating [2]: 0
- Plant response rating, Oat, Wild [2]: 0
- Plant response rating, Barnyardgrass [3]: 0
- Plant response rating, Sedge, Umbrella [4]: 80
- Plant response rating, Rice [5]: 0
- Plant response rating, Ducksalad [6]: 90
- Surinam Grass plant response rating [7, 18]: 0
- Plant response rating, Surinam Grass [7, 19]: 10
- Surinam Grass plant response rating [7, 21]: 0
- Barnyardgrass plant response rating [8, 18]: 20
- Plant response rating, Barnyardgrass [8, 19]: 70
- Plant response rating, Barnyardgrass [8, 20]: 0
- Barnyardgrass plant response rating [8, 21]: 10
- Velvetleaf plant response rating [9, 18]: 50
- Plant response rating, Velvetleaf [9, 19]: 70
- Plant response rating, Velvetleaf [9, 20]: 10
- Velvetleaf plant response rating [9, 21]: 30
- Lambsquarters plant response rating [10, 18]: 80
- Plant response rating, Lambsquarters [10, 19]: 90
- Plant response rating, Lambsquarters [10, 20]: 30
- Lambsquarters plant response rating [10, 21]: 60
- Foxtail, Giant plant response rating [11, 18]: 20
- Plant response rating, Foxtail, Giant [11, 19]: 30
- Plant response rating, Foxtail, Giant [11, 20]: 0
- Foxtail, Giant plant response rating [11, 21]: 0
- Pigweed plant response rating [12, 18]: 70
- Plant response rating, Pigweed [12, 19]: 90
- Plant response rating, Pigweed [12, 20]: 0
- Pigweed plant response rating [12, 21]: 60
- Crabgrass plant response rating [13, 18]: 10
- Plant response rating, Crabgrass [13, 19]: 20
- Plant response rating, Crabgrass [13, 20]: 0
- Crabgrass plant response rating [13, 21]: 20
- Wheat plant response rating [14, 18]: 30
- Plant response rating, Wheat [14, 19]: 40
- Plant response rating, Wheat [14, 20]: 0
- Plant response rating, Wheat [14, 21]: 20
- Cocklebur plant response rating [15, 18]: 70
- Plant response rating, Cocklebur [15, 20]: 0
- Cocklebur plant response rating [15, 21]: 10
- Corn plant response rating [16, 18]: 20
- Plant response rating, Corn [16, 19]: 80
- Plant response rating, Corn [16, 20]: 0
- Corn plant response rating [16, 21]: 0
- Morningglory plant response rating [17, 18]: 70
- Plant response rating, Morningglory [17, 19]: 90
- Plant response rating, Morningglory [17, 20]: 0
- Morningglory plant response rating [17, 21]: 20
